Results on 51 molecules are retold here after patent US7893098B2, “Pyrrole and pyrazole DAAO inhibitors” (Sepracor Inc., priority 2003, dated 2011).

In general, IC50 refers to the point on the concentration scale where inhibition reaches its midpoint.

The target in the first data set is Purified pig DAAO (Sus scrofa, UniProt P00371). Kind of data set: In vitro measurement of DAAO activity (Amplex Red H2O2 / phenylglycine assay). The format is biochemical. The settings on record: read-out: Inhibition of DAAO, IC50. The procedure: Purified pig DAAO, added to a buffered mixture of 50 mM D-Serine produces H202 in stoichiometric amounts for each D-Serine molecule oxidized. H202 production can be monitored with a commercially available dye Amplex Red, which in the presence of H202, is converted to the fluorescent product resorufin. For each described inhibitor, the fluorescence was also measured during additions of 80 μM H202 in the absence of DAAO, to control for artifactual inhibition of the dye conversion, and to quantify the amount of H202 produced. In an alternative assay of DAAO activity, the purified pig DAAO is added to buffered mixture of 1 mM phenylglycine in the presence of compounds. The activity of DAAO is monitored spectrophotometrically by its enzymatic conversion of phenylglycine to benzoylformic acid with optical absorption at 252 nm.
Purified pig DAAO, sequence (P00371 whole entry): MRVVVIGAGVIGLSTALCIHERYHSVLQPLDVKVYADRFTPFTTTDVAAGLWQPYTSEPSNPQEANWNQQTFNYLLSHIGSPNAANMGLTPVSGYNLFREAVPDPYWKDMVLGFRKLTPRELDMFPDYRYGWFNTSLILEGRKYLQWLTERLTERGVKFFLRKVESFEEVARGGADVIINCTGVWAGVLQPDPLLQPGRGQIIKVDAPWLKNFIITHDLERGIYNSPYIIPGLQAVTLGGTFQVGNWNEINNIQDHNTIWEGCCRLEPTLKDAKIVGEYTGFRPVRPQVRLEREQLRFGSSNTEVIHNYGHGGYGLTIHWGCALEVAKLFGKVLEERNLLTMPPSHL
Inhibitors of DAAO's enzymatic cycle were serially diluted to reduce the level of inhibition. The parameters of a non-linear equation were adjusted to fit the resulting series of inhibition levels to extrapolate the concentration of compound where 50% inhibition is achieved (IC50). These numbers are averaged for the number (n) of independent measurements (on separate days) of the inhibition.
With `O=C(O)c1n[nH]c2c1CCCC2Cc1ccccc1` (centres unmarked), the IC50 is less than 10 µM. The same measure, in the same setting: the figure for `O=C(O)c1ccc(CCc2ccccc2)[nH]1` [Compound 36, 5-phenethyl-1H-pyrrole-2-carboxylic acid] is less than 100 µM; for `O=C(O)c1cc2c([nH]1)CCCC2` it is less than 10 µM.

As to `CC1CCCc2c(C(=O)O)n[nH]c21` (centres unmarked), the IC50 was less than 10 µM. Still for that read-out and setting: the figure for `CC1CCc2[nH]nc(C(=O)O)c2C1` (centres unmarked) is less than 10 µM; for `CC(Cc1cc(C(=O)O)n[nH]1)c1ccccc1` (centres unmarked) [Compound 58, 5-(2-phenylpropyl)-1H-pyrazole-3-carboxylic acid] it is less than 1 µM. With `O=C(O)c1n[nH]c2c1CCCC2`, the IC50 is less than 1 µM. On the same count and under the same terms, the figure for `CC1CCc2c(C(=O)O)n[nH]c2C1` (centres unmarked) is less than 100 µM; for `O=C(O)c1cc[nH]n1` it is less than 100 µM. Same read-out and setting: the result for `Cc1cc(C(=O)O)n[nH]1` reads less than 10 µM.

Turning to `CC(C)CCCc1cc(C(=O)O)n[nH]1` [Compound 18, 5-(4-methylpentyl)-1H-pyrazole-3-carboxylic acid], the IC50 was less than 1 µM. On the same count and under the same terms, the figure for `O=C(Cc1ccccc1)c1c[nH]c(C(=O)O)c1` is less than 100 µM; for `CC(C)=CCCc1cc(C(=O)O)n[nH]1` [Compound 51, 5-(4-Methylpent-3-enyl)-1H-pyrazole-3-carboxylic acid] it is less than 1 µM. The same measure, in the same setting: the result for `O=C(O)c1cc(CCCc2ccccc2)c[nH]1` [Compound 45, 4-(3-phenylpropyl)-1H-pyrrole-2-carboxylic acid] reads less than 100 µM. Still for that read-out and setting: the result for `O=C(O)c1n[nH]c2c1CCCC2C1CCCCC1` (centres unmarked) reads less than 100 µM; that for `O=C(O)c1ccc[nH]1`, less than 10 µM; that for `O=C(O)c1n[nH]cc1[N+](=O)[O-]`, less than 1 µM. For `O=C(Cc1ccc(Cl)cc1)c1c[nH]c(C(=O)O)c1`, the IC50 was less than 100 µM.

As to `O=C(O)c1ccc(Cc2ccccc2)[nH]1` [Compound 32, 5-benzyl-1H-pyrrole-2-carboxylic acid], the half-inhibitory concentration (IC50) was greater than 100 µM.

For `O=C(O)c1cc(CCc2ccccc2)c[nH]1`, the IC50 was less than 1 µM. Same read-out and setting: the figure for `O=C(O)c1n[nH]c2c1CCCCC2` [Compound 15, 1,4,5,6,7,8-Hexahydrocycloheptapyrazole-3-carboxylic acid] is less than 10 µM; for `O=C(O)c1n[nH]c2c1CCc1ccccc1-2` it is greater than 100 µM; for `O=C(O)c1n[nH]c2c1CC(OCc1ccccc1)CC2` (centres unmarked) it is less than 100 µM. Same read-out and setting: the figure for `O=C(O)c1n[nH]c2c1CCCC2CCc1ccccc1` (centres unmarked) is less than 100 µM; for `O=C(O)c1cc(COc2ccccc2)[nH]n1` [Compound 42, 5-phenoxymethyl-1H-pyrazole-3-carboxylic acid] it is less than 1 µM. For `O=C(O)c1cc([N+](=O)[O-])[nH]n1`, the IC50 is less than 1 µM.

In the case of `CC(C)CCc1cc(C(=O)O)n[nH]1` [Compound 48, 5-(3-methylbutyl)-1H-pyrazole-3-carboxylic acid], the IC50 is less than 10 µM. With `Cc1cc(C(=O)O)no1`, the IC50 was less than 100 µM. In the case of `O=C(O)c1cc(CCc2ccccc2)on1`, the IC50 was less than 100 µM. Turning to `C[C@@H](Cc1cc(C(=O)O)n[nH]1)c1ccccc1` [Compound 80, (S)-5-(2-phenylpropyl)-1H-pyrazole-3-carboxylic acid], the IC50 is less than 10 µM. Still for that read-out and setting: the figure for `CC(=O)c1c[nH]c(C(=O)O)c1` is less than 100 µM; for `O=C(O)c1cc(CCc2ccccc2Br)c[nH]1` [Compound 65, 4-[2-(2-bromophenyl)-ethyl]-1H-pyrrole-2-carboxylic acid] it is less than 1 µM. The same measure, in the same setting: the figure for `O=C(O)c1n[nH]c2c1COCC2` is less than 10 µM; for `O=C(O)c1cc(CCCC2CCCC2)c[nH]1` [Compound 76, 4-(3-Cyclopentylpropyl)-1H-pyrrole-2-carboxylic acid] it is less than 10 µM.

For the molecule `CC1(C)CCc2c(C(=O)O)n[nH]c21` [Compound 3, 6,6-Dimethyl-1,4,5,6-tetrahydrocyclopentapyrazole-3-carboxylic acid], the IC50 is less than 10 µM.

Turning to `CC(Cc1ccccc1)c1cc(C(=O)O)n[nH]1` (centres unmarked) [Compound 62, 5-(1-methyl-2-phenylethyl)-1H-pyrazole-3-carboxylic acid], the IC50 is less than 1 µM. Take `O=C(O)c1n[nH]c2c1CCCCCC2`: the IC50 was less than 10 µM. Same read-out and setting: the figure for `CCCCCCCCCCC(=O)c1c[nH]c(C(=O)O)c1` is less than 100 µM; for `CC1CCc2c(C(=O)O)n[nH]c21` (centres unmarked) [Compound 6, 6-methyl-1,4,5,6-tetrahydrocyclopentapyrazole-3-carboxylic acid] it is less than 10 µM; for `O=C(O)c1cc(CCc2ccc(Cl)cc2)c(Br)[nH]1` [Compound 70, 5-bromo-4-[2-(4-chlorophenyl)-ethyl]-1H-pyrrole-2-carboxylic acid] it is less than 0.1 µM. With `CC1CCCC(C)(C)C1CCc1cc(C(=O)O)n[nH]1` (centres unmarked) [Compound 54, 5-[2-(2,2,6-trimethylcyclohexyl)-ethyl]-1H-pyrazole-3-carboxylic acid], the half-maximal inhibitory concentration (IC50) was less than 100 µM. For the molecule `CC(C)c1cc(C(=O)O)n[nH]1`, the IC50 is less than 1 µM. As for `O=C(O)c1cc(CCc2ccc(F)cc2)c[nH]1` [Compound 73, 4-[2-(4-fluorophenyl)-ethyl]-1H-pyrrole-2-carboxylic acid], the 50% inhibitory concentration (IC50) is less than 1 µM. On to `O=C(O)c1cc(CCc2ccc(Cl)cc2)n[nH]1` [Compound 69, 5-[2-(4-Chlorophenyl)-ethyl]-1H-pyrazole-3-carboxylic acid], for which the IC50 is less than 1 µM.

For the molecule `O=C(O)c1cc(CCc2ccccc2)[nH]n1` [Compound 21, 5-phenethyl-1H-pyrazole-3-carboxylic acid], the IC50 was less than 1 µM. As to `O=C(O)c1n[nH]c2c1CCC2` [drawing 44], the IC50 is less than 1 µM. The same measure, in the same setting: the figure for `COc1ccc(CCc2cc(C(=O)O)n[nH]2)cc1` [Compound 24, 5-[2-(4-Methoxyphenyl)-ethyl]-1H-pyrazole-3-carboxylic acid] is less than 1 µM. Same read-out and setting: the figure for `CC(C)C1CCc2[nH]nc(C(=O)O)c2C1` (centres unmarked) is less than 100 µM; for `Cc1cc(C)c(C(=O)O)[nH]1` it is greater than 100 µM.

System in a further data set: not listed separately
The data set is described as follows: Rat brain uptake, carotid perfusion. The format is in vivo. The settings on record: 30 second perfusion into left hemisphere, PBS pH 7.4; N of 4 rats. The source says: Experiments that evaluate the rat brain penetration of test compounds use a perfusion system where the left carotid artery is cannulated and the branch arteries are tied off. The test compound plus internal controls are perfused for 30 seconds into the left hemisphere in phosphate buffered saline at pH 7.4. The internal controls are atenolol (with low brain uptake) and antipyrine (with high brain uptake). After a 30 second washout with perfusate, the brain is removed surgically. The left hemisphere is homogenized; test compounds (plus internal controls) are extracted from brain homogenate, and analyzed using LC/MS/MS to determine the concentration of test compound and internal controls in the brain.
As to `O=C(O)c1cc(CCc2ccc(Cl)cc2)c[nH]1` [Compound 39, 4-[2-(4-chlorophenyl)-ethyl]-1H-pyrrole-2-carboxylic acid], the “Rat Brain Uptake Rate, pmol/g brain/sec” value turned out to be 204 pmol/g brain/sec. Same read-out and setting: the result for `O=C(O)c1n[nH]c2c1CCC2` [drawing 70] reads 6 pmol/g brain/sec; that for `CC(C)CCCc1cc(C(=O)O)n[nH]1` [Compound 18, 5-(4-methylpentyl)-1H-pyrazole-3-carboxylic acid], 17 pmol/g brain/sec.

For the molecule `O=C(O)c1cc(CCc2ccccc2)[nH]n1` [Compound 21, 5-phenethyl-1H-pyrazole-3-carboxylic acid], the “Rat Brain Uptake Rate, pmol/g brain/sec” value was 6 pmol/g brain/sec.
